The source made the active and inactive calls. The rule behind the calls is not given here.

From ChEMBL document CHEMBL1649437, “Inhaled voriconazole for prevention of invasive pulmonary aspergillosis” (Antimicrob Agents Chemother, 2009) come the findings set out here.

The test system of data set [1] is Aspergillus fumigatus. As to the kind of experiment: Antifungal activity against Aspergillus fumigatus isolate Af293 infected in immunosuppressed ICR mouse assessed as conidial equivalents per gram of tissue at 1 mg/kg, ip once daily administered 1 day post infection measured on day 8 by real-time quantitative PCR. Conditions: route intraperitoneal. Format: functional.

Data set [2] concerns Aspergillus fumigatus. The data set can be described thus: Antifungal activity against Aspergillus fumigatus isolate Af293 infected in immunosuppressed ICR mouse assessed as assessed as decrease in invasive lung disease at 1 mg/kg, ip once daily measured on day 12 by light microscopic analysis. Format: functional, organism-based. Details: dose 1 mg/kg.
The subject of data set [3] is Aspergillus fumigatus. The data set can be described thus: Antifungal activity against Aspergillus fumigatus isolate Af293 infected in immunosuppressed ICR mouse assessed as median survival time at 3 mg/kg, ip once daily. Format: functional. The following applies: route intraperitoneal.
Data set [4] deals with Aspergillus fumigatus. As to the kind of experiment: Antifungal activity against Aspergillus fumigatus isolate Af293 infected in immunosuppressed ICR mouse assessed as decrease in invasive lung disease at 6.25 mg/ml twice daily administered 2 days prior to infection via nebulization measured on day 8 by light microscopic analysis. Format: functional, organism-based.
For data set [5], the system named is Aspergillus fumigatus. As to the kind of experiment: Antifungal activity against Aspergillus fumigatus isolate Af293 infected in immunosuppressed ICR mouse assessed as decreased lung vascular damage at 1 mg/kg, ip once daily measured on day 8 by histopathological analysis. Format: functional, organism-based. More on the design: dose 1 mg/kg.
Data set [6] relates to Aspergillus fumigatus. As to the kind of experiment: Antifungal activity against Aspergillus fumigatus isolate Af293 infected in immunosuppressed ICR mouse assessed as assessed as decrease in invasive lung disease at 1 mg/kg, ip once daily measured on day 8 by light microscopic analysis. More on the design: dose 1 mg/kg. Format: functional, organism-based.
Data set [7] relates to Aspergillus fumigatus. The data set can be described thus: Antifungal activity against Aspergillus fumigatus isolate Af293 infected in immunosuppressed ICR mouse assessed as increased survival of mouse at 1 mg/kg, ip once daily until day 7. Conditions: route intraperitoneal. Format: functional.
Data set [8] concerns Aspergillus fumigatus. As to the kind of experiment: Antifungal activity against Aspergillus fumigatus isolate Af293 infected in immunosuppressed ICR mouse assessed as median survival time at 1 mg/kg, ip once daily. Format: functional. The following applies: route intraperitoneal.
Data set [9] has as its system Aspergillus fumigatus. As to the kind of experiment: Antifungal activity against Aspergillus fumigatus isolate Af293 infected in immunosuppressed ICR mouse assessed as pulmonary fungal burden at 1 mg/kg, ip once daily administered 1 day post infection measured on day 8 by real-time quantitative PCR. Format: functional. Conditions: route intraperitoneal.
Data set [10] concerns Aspergillus fumigatus. As to the kind of experiment: Antifungal activity against Aspergillus fumigatus isolate Af293 infected in immunosuppressed ICR mouse assessed as decreased lung vascular damage at 1 mg/kg, ip once daily measured on day 12 by histopathological analysis. Format: functional, organism-based. Details: dose 1 mg/kg.
The test system of data set [11] is Aspergillus fumigatus. The data set can be described thus: Antifungal activity against Aspergillus fumigatus isolate Af293 infected in immunosuppressed ICR mouse assessed as increased survival of mouse at 1 mg/kg, ip once daily until day 12. Format: functional. The following applies: route intraperitoneal.
Data set [12] relates to Aspergillus fumigatus. As to the kind of experiment: Antifungal activity against Aspergillus fumigatus isolate Af293 infected in immunosuppressed ICR mouse assessed as median survival time at 6.25 mg/ml twice daily 2 days prior to infection via nebulization. Format: functional.
Data set [13] deals with Mus musculus. The data set can be described thus: Toxicity in immunosuppressed ICR mouse assessed as inflammatory changes at 6.25 mg/ml twice daily administered 2 days prior to infection via nebulization. Format: organism-based. The following applies: in vivo, inhaled_or_intranasal, 48 h.
For data set [14], the system named is Aspergillus fumigatus. The data set can be described thus: Antifungal activity against Aspergillus fumigatus isolate Af293 infected in immunosuppressed ICR mouse assessed as increased survival of mouse at 6.25 mg/ml twice daily administered 2 days prior to infection via nebulization until day 7 (Rvb= 25%). Format: functional.
The subject of data set [15] is Aspergillus fumigatus. As to the kind of experiment: Antifungal activity against Aspergillus fumigatus isolate Af293 infected in immunosuppressed ICR mouse assessed as decrease in invasive lung disease at 6.25 mg/ml twice daily administered 2 days prior to infection via nebulization measured on day 12 by light microscopic analysis. Format: functional, organism-based.

Data set [16] relates to Aspergillus fumigatus. The data set can be described thus: Antifungal activity against Aspergillus fumigatus isolate Af293 infected in immunosuppressed ICR mouse assessed as decreased lung vascular damage at 6.25 mg/ml twice daily administered 2 days prior to infection via nebulization measured on day 8 by histopathological analysis. Format: functional, organism-based.
The test system of data set [17] is Aspergillus fumigatus. The data set can be described thus: Antifungal activity against Aspergillus fumigatus isolate Af293 infected in immunosuppressed ICR mouse assessed as increased survival of mouse at 6.25 mg/ml twice daily administered 2 days prior to infection via nebulization until day 12 (Rvb= 17%). Format: functional.
Data set [18] concerns Aspergillus fumigatus. As to the kind of experiment: Antifungal activity against Aspergillus fumigatus isolate Af293 infected in immunosuppressed ICR mouse assessed as pulmonary fungal burden at 6.25 mg/ml twice daily administered 2 days prior to infection via nebulization measured on day 8 by real-time quantitative PCR. Format: functional.
In data set [19] the test system is Aspergillus fumigatus. As to the kind of experiment: Antifungal activity against Aspergillus fumigatus isolate Af293 infected in immunosuppressed ICR mouse assessed as decreased lung vascular damage at 6.25 mg/ml twice daily administered 2 days prior to infection via nebulization measured on day 12 by histopathological analysis. Format: functional, organism-based.

The nature of data set [20]: Cmax in mouse serum. Format: ADME, organism-based.
In data set [21] the test system is Aspergillus fumigatus. The data set can be described thus: Antifungal activity against Aspergillus fumigatus isolate Af293 infected in immunosuppressed ICR mouse assessed as conidial equivalents per gram of tissue at 6.25 mg/ml twice daily administered 2 days prior to infection via nebulization measured on day 8 by real-time quantitative PCR. Format: functional.

The subject of data set [22] is Mus musculus. The data set can be described thus: Toxicity in immunosuppressed ICR mouse assessed as lung injury at 6.25 mg/ml twice daily administered 2 days prior to infection via nebulization. Conditions: in vivo, inhaled_or_intranasal, 48 h. Format: organism-based.
Data set [23] is described as follows: Cmax in mouse lung. Format: ADME, organism-based.

`C[C@@H]1[C@H](O)[C@@H](C)/C=C/C=C/C=C/C=C/C=C/C=C/C=C/[C@H](O[C@@H]2O[C@H](C)[C@@H](O)[C@H](N)[C@@H]2O)C[C@@H]2O[C@](O)(C[C@@H](O)C[C@@H](O)[C@H](O)CC[C@@H](O)C[C@@H](O)CC(=O)O[C@H]1C)C[C@H](O)[C@H]2C(=O)O` [AMPHOTERICIN B]: the Activity was determined as 5.26 in data set [1], 50% in [3], 31% in data set [7] and 23% in data set [11]. In addition, the result in data set [2], in data set [5], in data set [6] and in data set [10] was inactive. In addition, in data set [4], the result was Active. Also, the Time in [8] is 7 days. Besides, in [9], the log10cfu stood at 4.33.

For `C[C@@H](c1ncncc1F)[C@](O)(Cn1cncn1)c1ccc(F)cc1F` [VORICONAZOLE], the Time in data set [12] was >12 days. Besides, the Activity result in data set [13] is “Non-toxic”; in data set [14], 92%; in data set [17] it was 67%; in data set [21], 5.24; in data set [22], “Non-toxic”. Moreover, the result in data set [15], in [16] and in data set [19] was Active. Besides, in data set [18], the log10cfu stood at 4.21. Moreover, the Cmax in data set [20] was 2320 ng/mL; in data set [23] it was 6730 ng/g.

A word on the Cmax: it is the maximum level reached in the sampled fluid or tissue.
